These results are taken from patent US20240409585A1, “MACROCYCLIC IMMUNOMODULATORS” (priority 2021, published 2024).

Numbered stars: 1 amine (or outer) side, 2 acyl side, 3 side chain; on linkers, the order of the positions; unused ones are H or OH. Bridge positions count the residues as written; N and C are the ends. Square brackets hold non-standard residues; d marks the D form. Peptide text beside a SMILES is read from it. * marks the point of attachment. Bip(4'-COOH) = N[C@@H](Cc1ccc(-c2ccc(C(=O)O)cc2)cc1)C(=O)O; Bip(4'-NHAc) = CC(=O)Nc1ccc(-c2ccc(C[C@H](N)C(=O)O)cc2)cc1; X52 = Nc1ccc(-c2ccc(C[C@H](N[*:1])C(=O)[*:2])cc2)cn1; Phe(3,4,5-F3) = N[C@@H](Cc1cc(F)c(F)c(F)c1)C(=O)O; Phe(3-CF3) = N[C@@H](Cc1cccc(C(F)(F)F)c1)C(=O)O; Ala(morpholin-4-yl) = N[C@@H](CN1CCOCC1)C(=O)O; Phe(4-COOH) = N[C@@H](Cc1ccc(C(=O)O)cc1)C(=O)O; Bip = N[C@@H](Cc1ccc(-c2ccccc2)cc1)C(=O)O; Abu(3R-NH2) = C[C@@H](N)[C@H](N)C(=O)O; Phe(3-Me) = Cc1cccc(C[C@H](N)C(=O)O)c1; Val(3-OH) = CC(C)(O)[C@H](N)C(=O)O; hPhe = N[C@@H](CCc1ccccc1)C(=O)O; Aad = N[C@@H](CCCC(=O)O)C(=O)O; Cha = N[C@@H](CC1CCCCC1)C(=O)O; Carboxymethyl = O=C(O)C*; NMeA = CN[C@@H](C)C(=O)O; Nle = CCCC[C@H](N)C(=O)O; Orn = NCCC[C@H](N)C(=O)O; Dab = NCC[C@H](N)C(=O)O

In one assay the target is T1, Alexa fluor-647 labeled human PD-L1-Ig binding to Jurkat cell line over-expressing human PD-1 (Homo sapiens, UniProt Q15116).
T1 construct: expressed in transfected cells; host or cells: Jurkat
T1 sequence (Q15116 25-288): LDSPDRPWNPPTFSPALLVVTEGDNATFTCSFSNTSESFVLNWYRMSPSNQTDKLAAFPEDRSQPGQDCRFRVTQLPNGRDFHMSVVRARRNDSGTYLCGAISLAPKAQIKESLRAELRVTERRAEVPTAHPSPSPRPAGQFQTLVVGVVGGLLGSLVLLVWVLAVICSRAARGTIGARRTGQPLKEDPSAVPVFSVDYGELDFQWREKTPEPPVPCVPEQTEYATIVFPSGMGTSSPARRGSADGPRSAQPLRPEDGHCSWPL
In words: Jurkat-PD-1 Cell Binding High-Content Screening Assay (CBA): Method 3 (Alexa fluor-647 labeled PD-L1-Ig). The settings on record: Jurkat-PD-1 cells, Alexa fluor-647 labeled PD-L1-Ig 177 nM; head μM; read-out: CBA Method 3 μM. Put shortly: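 Readout by high-content imaging of PFA-fixed, Hoechst-stained cells after 1 h with 177 nM (final) Alexa fluor-647 PD-L1-Ig. Compound was added first to hPD-1 Jurkat cells in RPMI plus 10% FCS for 2 h at 37 °C.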
Consider `CC(C)C[C@@H]1NC(=O)[C@H](Cc2c[nH]c3ccccc23)NC(=O)[C@H](CC(=O)O)NC(=O)[C@H](Cc2ccc(C(=O)O)cc2)NC(=O)[C@H](Cc2ccc(OCC(=O)O)cc2)NC(=O)CSC[C@@H](C(=O)N[C@@H](CCCN)C(N)=O)NC(=O)[C@H](C(C)C)NC(=O)[C@H]([C@@H](C)O)NC(=O)[C@H](CC2CCCCC2)NC(=O)[C@H](CCN)NC(=O)[C@@H](CC(C)C)NC(=O)[C@H](C)N(C)C(=O)[C@H](C(C)C)NC(=O)[C@H](Cc2ccc(-c3ccccc3)cc2)NC1=O` [Example 5140] ({CH2CO}-Y(Carboxymethyl)[Phe(4-COOH)]DWL[Bip]V[NMeA][dL][Dab][Cha]TVC[Orn]-NH2; thioether N-14), for which the IC50 was 0.01 µM. With `Cc1cccc(C[C@@H]2NC(=O)[C@H](CC(=O)O)NC(=O)[C@H](Cc3ccc(OCC(=O)O)cc3)NC(=O)[C@H](CC3CCCCC3)NC(=O)CSC[C@@H](C(=O)N[C@@H](CCN)C(N)=O)NC(=O)[C@H](CCCN)NC(=O)[C@H](C(C)C)NC(=O)[C@H](CCN)NC(=O)[C@H](CCN)NC(=O)[C@@H](CC(C)C)NC(=O)[C@H](C)N(C)C(=O)[C@H](CCC(N)=O)NC(=O)[C@H](Cc3ccc(-c4ccccc4)cc3)NC(=O)[C@H](Cc3ccc(C(=O)O)cc3)NC2=O)c1` [Example 5205] ({CH2CO}-[Cha]Y(Carboxymethyl)D[Phe(3-Me)][Phe(4-COOH)][Bip]Q[NMeA][dL][Dab][Dab]V[Orn]C[Dab]-NH2; thioether N-14), the IC50 worked out at 0.16 µM. Still for that read-out and setting: to `CC(=O)Nc1ccc(-c2ccc(C[C@@H]3NC(=O)[C@H](Cc4cccc(C)c4)NC(=O)[C@H](CC(=O)O)NC(=O)[C@H](Cc4ccc(C(=O)O)cc4)NC(=O)[C@H](CN4CCOCC4)NC(=O)CSC[C@@H](C(=O)N[C@@H](CCN)C(N)=O)NC(=O)[C@H](CCCC(N)=O)NC(=O)[C@H](C(C)C)NC(=O)[C@H](CC4CCCCC4)NC(=O)[C@H](CCN)NC(=O)[C@@H](CC(C)C)NC(=O)[C@H](C)N(C)C(=O)[C@H](Cc4ccc(C(=O)O)cc4)NC(=O)[C@H](Cc4ccc(-c5ccccc5)cc4)NC3=O)cc2)cc1` [Example 5257] ({CH2CO}-[Ala(morpholin-4-yl)][Phe(4-COOH)]D[Phe(3-Me)][Bip(4'-NHAc)][Bip][Phe(4-COOH)][NMeA][dL][Dab][Cha]V[Aad](NH2)C[Dab]-NH2; thioether N-14) belongs 0.03 µM; to `Cc1cccc(C[C@@H]2NC(=O)[C@H](CC(=O)O)NC(=O)[C@H](Cc3ccc(OCC(=O)O)cc3)NC(=O)[C@H](Cc3cc(F)c(F)c(F)c3)NC(=O)CSC[C@@H](C(=O)N[C@@H](CCN)C(N)=O)NC(=O)[C@H](CCCN)NC(=O)[C@H](C(C)C)NC(=O)[C@H](CC3CCCCC3)NC(=O)[C@H](CCN)NC(=O)[C@@H](CC(C)C)NC(=O)[C@H](C)N(C)C(=O)[C@H](CCC(N)=O)NC(=O)[C@H](Cc3ccc(-c4ccccc4)cc3)NC(=O)[C@H](Cc3ccc(C(=O)O)cc3)NC2=O)c1` [Example 5287] ({CH2CO}-[Phe(3,4,5-F3)]Y(Carboxymethyl)D[Phe(3-Me)][Phe(4-COOH)][Bip]Q[NMeA][dL][Dab][Cha]V[Orn]C[Dab]-NH2; thioether N-14), 0.27 µM.

With `Cc1cccc(C[C@@H]2NC(=O)[C@H](CC(=O)O)NC(=O)[C@H](Cc3ccc(OCC(=O)O)cc3)NC(=O)[C@H](CN3CCOCC3)NC(=O)CSC[C@@H](C(=O)N[C@@H](CCN)C(N)=O)NC(=O)[C@H](CCCN)NC(=O)[C@H](C(C)C)NC(=O)[C@H](CC3CCCCC3)NC(=O)[C@H](CCN)NC(=O)[C@@H](CC(C)C)NC(=O)[C@H](C)N(C)C(=O)[C@H](CCC(N)=O)NC(=O)[C@H](Cc3ccc(-c4ccccc4)cc3)NC(=O)[C@H](Cc3ccc(-c4ccc(N)nc4)cc3)NC2=O)c1` [Example 5104] ({CH2CO}-[Ala(morpholin-4-yl)]Y(Carboxymethyl)D[Phe(3-Me)][X52][Bip]Q[NMeA][dL][Dab][Cha]V[Orn]C[Dab]-NH2; thioether N-14), the IC50 was found to be 0.05 µM. On the same count and under the same terms, then `CC(=O)Nc1ccc(-c2ccc(C[C@@H]3NC(=O)[C@H](Cc4cccc(C(F)(F)F)c4)NC(=O)[C@H](CC(=O)O)NC(=O)[C@H](Cc4ccc(C(=O)O)cc4)NC(=O)[C@H](CC(C)C)NC(=O)CSC[C@@H](C(=O)N[C@@H](CCN)C(N)=O)NC(=O)[C@H](CCC(=O)O)NC(=O)[C@H](C(C)C)NC(=O)[C@H](CC4CCCCC4)NC(=O)[C@H](CCN)NC(=O)[C@@H](CC(C)C)NC(=O)[C@H](C)N(C)C(=O)[C@H](CCCN)NC(=O)[C@H](Cc4ccc(-c5ccccc5)cc4)NC3=O)cc2)cc1` [Example 5094] ({CH2CO}-L[Phe(4-COOH)]D[Phe(3-CF3)][Bip(4'-NHAc)][Bip][Orn][NMeA][dL][Dab][Cha]VEC[Dab]-NH2; thioether N-14), with 0.03 µM; and `Cc1cccc(C[C@@H]2NC(=O)[C@H](CC(=O)O)NC(=O)[C@H](Cc3ccc(-c4ccc(C(=O)O)cc4)cc3)NC(=O)[C@H]([C@@H](C)O)NC(=O)CSC[C@@H](C(=O)N[C@@H](CCN)C(N)=O)NC(=O)[C@H](Cc3cnc[nH]3)NC(=O)[C@H](C(C)(C)O)NC(=O)[C@H](CC3CCCCC3)NC(=O)[C@H](CCN)NC(=O)[C@@H](CC(C)C)NC(=O)[C@H](C)N(C)C(=O)[C@H](Cc3ccc(C(=O)O)cc3)NC(=O)[C@H](Cc3ccc(-c4ccccc4)cc3)NC(=O)[C@H](Cc3ccc(-c4ccc(C(=O)O)cc4)cc3)NC2=O)c1` [Example 5131] ({CH2CO}-T[Bip(4'-COOH)]D[Phe(3-Me)][Bip(4'-COOH)][Bip][Phe(4-COOH)][NMeA][dL][Dab][Cha][Val(3-OH)]HC[Dab]-NH2; thioether N-14), with 0.19 µM.

The assay is the same for the next values; noted with them: Jurkat-PD-1 cells, Alexa fluor-647 labeled PD-L1-Ig 177 nM; nM; read-out: CBA Method 3.
`CCCC[C@@H]1NC(=O)CSC[C@@H](C(=O)N[C@@H](CCN)C(N)=O)NC(=O)[C@H](CCCN)NC(=O)[C@H](C(C)C)NC(=O)[C@H](CC2CCCCC2)NC(=O)[C@H](CCN)NC(=O)[C@@H](CC(C)C)NC(=O)[C@H](C)N(C)C(=O)[C@H](CCC(N)=O)NC(=O)[C@H](Cc2ccc(-c3ccccc3)cc2)NC(=O)[C@H](Cc2ccc(-c3ccc(C(=O)O)cc3)cc2)NC(=O)[C@H](Cc2cccc(C(F)(F)F)c2)NC(=O)[C@H](CC(=O)O)NC(=O)[C@H](Cc2ccc(C(=O)O)cc2)NC1=O` [Example 5166] ({CH2CO}-[Nle][Phe(4-COOH)]D[Phe(3-CF3)][Bip(4'-COOH)][Bip]Q[NMeA][dL][Dab][Cha]V[Orn]C[Dab]-NH2; thioether N-14): the IC50 stood at 0.001 µM. As for `CC(C)C[C@H]1NC(=O)[C@H](C)N(C)C(=O)[C@H](CCC(N)=O)NC(=O)[C@H](Cc2ccc(-c3ccccc3)cc2)NC(=O)[C@H](Cc2ccc(OCC(=O)O)cc2)NC(=O)[C@H](Cc2cccc(C(F)(F)F)c2)NC(=O)[C@H](CC(=O)O)NC(=O)[C@H](CCC(N)=O)NC(=O)[C@H]([C@@H](C)N)NC(=O)CSC[C@@H](C(=O)N[C@@H](CCN)C(N)=O)NC(=O)[C@H](CCCN)NC(=O)[C@H](C(C)C)NC(=O)[C@H](CC2CCCCC2)NC(=O)[C@H](CCN)NC1=O` [Example 5249] ({CH2CO}-[Abu(3R-NH2)]QD[Phe(3-CF3)]Y(Carboxymethyl)[Bip]Q[NMeA][dL][Dab][Cha]V[Orn]C[Dab]-NH2; thioether N-14), the IC50 turned out to be 0.0019 µM.

With `CC(C)C[C@H]1NC(=O)[C@H](C)N(C)C(=O)[C@H](CCC(N)=O)NC(=O)[C@H](Cc2ccc(-c3ccccc3)cc2)NC(=O)[C@H](CCc2ccccc2)NC(=O)[C@H](Cc2cccc(C(F)(F)F)c2)NC(=O)[C@H](CC(=O)O)NC(=O)[C@H](Cc2ccc(OCC(=O)O)cc2)NC(=O)[C@H]([C@@H](C)N)NC(=O)CSC[C@@H](C(=O)N[C@@H](CCN)C(N)=O)NC(=O)[C@H](CCC(=O)O)NC(=O)[C@H](C(C)C)NC(=O)[C@H](CC2CCCCC2)NC(=O)[C@H](CCN)NC1=O` [Example 5215] ({CH2CO}-[Abu(3R-NH2)]Y(Carboxymethyl)D[Phe(3-CF3)][hPhe][Bip]Q[NMeA][dL][Dab][Cha]VEC[Dab]-NH2; thioether N-14), the IC50 worked out at 0.001 µM. Same read-out and setting: to `CC(=O)Nc1ccc(-c2ccc(C[C@@H]3NC(=O)[C@H](Cc4cccc(C)c4)NC(=O)[C@H](CC(=O)O)NC(=O)[C@H](Cc4ccc(-c5ccc(C(=O)O)cc5)cc4)NC(=O)[C@H](CN4CCOCC4)NC(=O)CSC[C@@H](C(=O)N[C@@H](CCN)C(N)=O)NC(=O)[C@H](CO)NC(=O)[C@H](C(C)(C)O)NC(=O)[C@H](CC4CCCCC4)NC(=O)[C@H](Cc4cnc[nH]4)NC(=O)[C@@H](CC(C)C)NC(=O)[C@H](C)N(C)C(=O)[C@H](Cc4ccc(C(=O)O)cc4)NC(=O)[C@H](Cc4ccc(-c5ccccc5)cc4)NC3=O)cc2)cc1` [Example 5123] ({CH2CO}-[Ala(morpholin-4-yl)][Bip(4'-COOH)]D[Phe(3-Me)][Bip(4'-NHAc)][Bip][Phe(4-COOH)][NMeA][dL]H[Cha][Val(3-OH)]SC[Dab]-NH2; thioether N-14) belongs 0.0094 µM; to `Cc1cccc(C[C@@H]2NC(=O)[C@H](CC(=O)O)NC(=O)[C@H](Cc3ccc(OCC(=O)O)cc3)NC(=O)[C@H](CC(N)=O)NC(=O)CSC[C@@H](C(=O)N[C@@H](CCN)C(N)=O)NC(=O)[C@H](CCCN)NC(=O)[C@H](C(C)C)NC(=O)[C@H](CC3CCCCC3)NC(=O)[C@H](CCN)NC(=O)[C@@H](CC(C)C)NC(=O)[C@H](C)N(C)C(=O)[C@H](CCC(N)=O)NC(=O)[C@H](Cc3ccc(-c4ccccc4)cc3)NC(=O)[C@H](Cc3ccc(C(=O)O)cc3)NC2=O)c1` [Example 5187] ({CH2CO}-NY(Carboxymethyl)D[Phe(3-Me)][Phe(4-COOH)][Bip]Q[NMeA][dL][Dab][Cha]V[Orn]C[Dab]-NH2; thioether N-14), 0.008 µM. Take `CC(C)C[C@H]1NC(=O)[C@H](C)N(C)C(=O)[C@H](CCC(N)=O)NC(=O)[C@H](Cc2ccc(-c3ccccc3)cc2)NC(=O)[C@H](CCc2ccccc2)NC(=O)[C@H](Cc2cccc(C(F)(F)F)c2)NC(=O)[C@H](CC(=O)O)NC(=O)[C@H](Cc2ccc(O)cc2)NC(=O)[C@H](CN2CCOCC2)NC(=O)CSC[C@@H](C(=O)N[C@@H](CCN)C(N)=O)NC(=O)[C@H](CCC(N)=O)NC(=O)[C@H](C(C)C)NC(=O)[C@H](CC2CCCCC2)NC(=O)[C@H](CCN)NC1=O` [Example 5240] ({CH2CO}-[Ala(morpholin-4-yl)]YD[Phe(3-CF3)][hPhe][Bip]Q[NMeA][dL][Dab][Cha]VQC[Dab]-NH2; thioether N-14): the IC50 is 0.0044 µM.
